Data as given in US10118947B2, “Modulation of structured polypeptide specificity” (BICYCLE THERAPEUTICS LIMITED, priority 2013, dated 2018).
Numbered stars: 1 amine (or outer) side, 2 acyl side, 3 side chain; on linkers, the order of the positions; unused ones are H or OH. Bridge positions count the residues as written; N and C are the ends. Square brackets hold non-standard residues; d marks the D form. Peptide text beside a SMILES is read from it. Pro(trans-4-Ph) = O=C(O)[C@@H]1C[C@@H](c2ccccc2)CN1; Pro(4R-Bn) = O=C(O)[C@@H]1C[C@@H](Cc2ccccc2)CN1; Pro(trans-4-F) = O=C(O)[C@@H]1C[C@@H](F)CN1; Bip = N[C@@H](Cc1ccc(-c2ccccc2)cc1)C(=O)O; Tpi = O=C(O)[C@@H]1Cc2c([nH]c3ccccc23)CN1; Dip = N[C@H](C(=O)O)C(c1ccccc1)c1ccccc1; X2 = O=C([C@@H]1Cc2ccccc2N1[*:1])[*:2]; 2Nal = N[C@@H](Cc1ccc2ccccc2c1)C(=O)O; TBMB = c1c(C[*:1])cc(C[*:3])cc1C[*:2]; Hyp = O=C(O)[C@@H]1C[C@@H](O)CN1; 3Pal = N[C@@H](Cc1cccnc1)C(=O)O; 4Pal = N[C@@H](Cc1ccncc1)C(=O)O; Cha = N[C@@H](CC1CCCCC1)C(=O)O; Pen = CC(C)(S)[C@H](N)C(=O)O; Abu = CC[C@H](N)C(=O)O; Aib = CC(C)(N)C(=O)O

Assay: Plasma stability profiling Method #1 (MALDI-TOF, 35% plasma), rat plasma
Assay type: in vitro ADME
Details: method #1
Description: A rapid plasma stability profiling assay was developed that employed mass spectrometric detection (MALDI-TOF, Voyager DE, Applied Biosystems) of the parent mass, until the time when the parent peptide mass was no longer observable. Specifically, 200 uM of peptide was incubated in the presence of 35% rat or human plasma (Sera labs, using citrate as anticoagulant) at 37 deg C., which was supplemented with 1×PBS (derived from a 10×PBS Stock, Sigma). At various time points (i.e. t=0, 3, 24 hrs, henceafter daily up to 10 days), 2 uL of sample was added to 18 uL of 30 mM ammonium bicarbonate in a 1:1 mixture of acetonitrile:H2O. Samples were frozen at −80 deg C. until the time of analysis. For mass spectrometric analysis that determines the approximate detection window of the peptide, the acetonitrile:H2O-diluted sample of a given time point was spotted directly (0.7 uL) onto the MALDI plate. Matrix (alpha-cyanocinnamic acid, Sigma, prepared as a saturated solution in 1:1 acetonitrile:water containing 0.1% trifluoroacetic acid) was layered over the sample (1 uL). At a similar laser intensity setting on the MALDI TOF, the time could then be determined until parent peptide was no longer detectable. It should be noted that this is a qualitative assay serves to detect relative changes in plasma stability.

| SMILES | Observable in rat plasma, for days (Table 12) [days] | Observable in rat plasma, for days (Table 13) [days] | other results |
| --- | --- | --- | --- |
| CC(=O)N[C@H]1CSCc2cc3cc(c2)CSC[C@H](NC(=O)[C@H](CCCNC(=N)N)NC(=O)[C@H](C)NC(=O)[C@@H]2CCCN2C(=O)[C@H](Cc2ccc4ccccc4c2)NC(=O)[C@H](CO)NC1=O)C(=O)N[C@@H](CC(C)C)C(=O)N[C@@H](Cc1c[nH]cn1)C(=O)N[C@@H](CCC(N)=O)C(=O)N[C@@H](CC(=O)O)C(=O)N[C@@H](CC(C)C)C(=O)N[C@H](C(N)=O)CSC3 [Ac-(06-34-18) 2NAL2] (Ac-CS[2Nal]PARCLHQDLC-NH2; linker 1-7-13 via TBMB) | 2 |  |  |
| CC(=O)N[C@H]1CSCc2cc3cc(c2)CSC[C@H](NC(=O)[C@H](CCCNC(=N)N)NC(=O)[C@H](C)NC(=O)[C@@H]2CCCN2C(=O)[C@H](C(c2ccccc2)c2ccccc2)NC(=O)[C@H](CO)NC1=O)C(=O)N[C@@H](CC(C)C)C(=O)N[C@@H](Cc1c[nH]cn1)C(=O)N[C@@H](CCC(N)=O)C(=O)N[C@@H](CC(=O)O)C(=O)N[C@@H](CC(C)C)C(=O)N[C@H](C(N)=O)CSC3 [Ac-(06-34-18) 3,3-DPA2] (Ac-CS[Dip]PARCLHQDLC-NH2; linker 1-7-13 via TBMB) | 2 |  |  |
| CC(=O)N[C@H]1CSCc2cc3cc(c2)CSC[C@H](NC(=O)[C@H](CCCNC(=N)N)NC(=O)[C@H](C)NC(=O)[C@@H]2CCCN2C(=O)[C@H](Cc2cccnc2)NC(=O)[C@H](CO)NC1=O)C(=O)N[C@@H](CC(C)C)C(=O)N[C@@H](Cc1c[nH]cn1)C(=O)N[C@@H](CCC(N)=O)C(=O)N[C@@H](CC(=O)O)C(=O)N[C@@H](CC(C)C)C(=O)N[C@H](C(N)=O)CSC3 [Ac-(06-34-18) 3Pal2] (Ac-CS[3Pal]PARCLHQDLC-NH2; linker 1-7-13 via TBMB) | 2 |  |  |
| CC(=O)N[C@H]1CSCc2cc3cc(c2)CSC[C@H](NC(=O)[C@H](CCCNC(=N)N)NC(=O)[C@H](C)NC(=O)[C@@H]2CCCN2C(=O)[C@H](Cc2ccc(-c4ccccc4)cc2)NC(=O)[C@H](CO)NC1=O)C(=O)N[C@@H](CC(C)C)C(=O)N[C@@H](Cc1c[nH]cn1)C(=O)N[C@@H](CCC(N)=O)C(=O)N[C@@H](CC(=O)O)C(=O)N[C@@H](CC(C)C)C(=O)N[C@H](C(N)=O)CSC3 [Ac-(06-34-18) 4,4,BPal2] (Ac-CS[Bip]PARCLHQDLC-NH2; linker 1-7-13 via TBMB) | 2 |  |  |
| CC(=O)N[C@H]1CSCc2cc3cc(c2)CSC[C@H](NC(=O)[C@H](CCCNC(=N)N)NC(=O)[C@H](C)NC(=O)[C@@H]2C[C@@H](Cc4ccccc4)CN2C(=O)[C@H](Cc2c[nH]c4ccccc24)NC(=O)[C@H](CO)NC1=O)C(=O)N[C@@H](CC(C)C)C(=O)N[C@@H](Cc1c[nH]cn1)C(=O)N[C@@H](CCC(N)=O)C(=O)N[C@@H](CC(=O)O)C(=O)N[C@@H](CC(C)C)C(=O)N[C@H](C(N)=O)CSC3 [Ac-(06-34-18) 4Benzyl Pro3] (Ac-CSW[Pro(4R-Bn)]ARCLHQDLC-NH2; linker 1-7-13 via TBMB) |  | 2 |  |
| CC(=O)N[C@H]1CSCc2cc3cc(c2)CSC[C@H](NC(=O)[C@H](CCCNC(=N)N)NC(=O)[C@H](C)NC(=O)[C@@H]2C[C@@H](F)CN2C(=O)[C@H](Cc2c[nH]c4ccccc24)NC(=O)[C@H](CO)NC1=O)C(=O)N[C@@H](CC(C)C)C(=O)N[C@@H](Cc1c[nH]cn1)C(=O)N[C@@H](CCC(N)=O)C(=O)N[C@@H](CC(=O)O)C(=O)N[C@@H](CC(C)C)C(=O)N[C@H](C(N)=O)CSC3 [Ac-(06-34-18) 4FluoPro3] (Ac-CSW[Pro(trans-4-F)]ARCLHQDLC-NH2; linker 1-7-13 via TBMB) |  | 2 |  |
| CC(=O)N[C@H]1CSCc2cc3cc(c2)CSC[C@H](NC(=O)[C@H](CCCNC(=N)N)NC(=O)[C@H](C)NC(=O)[C@@H]2CCCN2C(=O)[C@H](Cc2ccncc2)NC(=O)[C@H](CO)NC1=O)C(=O)N[C@@H](CC(C)C)C(=O)N[C@@H](Cc1c[nH]cn1)C(=O)N[C@@H](CCC(N)=O)C(=O)N[C@@H](CC(=O)O)C(=O)N[C@@H](CC(C)C)C(=O)N[C@H](C(N)=O)CSC3 [Ac-(06-34-18) 4Pal2] (Ac-CS[4Pal]PARCLHQDLC-NH2; linker 1-7-13 via TBMB) | 2 |  |  |
| CC(=O)N[C@H]1CSCc2cc3cc(c2)CSC[C@H](NC(=O)[C@H](CCCNC(=N)N)NC(=O)[C@H](C)NC(=O)[C@@H]2C[C@@H](c4ccccc4)CN2C(=O)[C@H](Cc2c[nH]c4ccccc24)NC(=O)[C@H](CO)NC1=O)C(=O)N[C@@H](CC(C)C)C(=O)N[C@@H](Cc1c[nH]cn1)C(=O)N[C@@H](CCC(N)=O)C(=O)N[C@@H](CC(=O)O)C(=O)N[C@@H](CC(C)C)C(=O)N[C@H](C(N)=O)CSC3 [Ac-(06-34-18) 4Phenyl Pro3] (Ac-CSW[Pro(trans-4-Ph)]ARCLHQDLC-NH2; linker 1-7-13 via TBMB) |  | 2 |  |
| CC[C@@H]1NC(=O)[C@@H]2CCCN2C(=O)[C@H](Cc2c[nH]c3ccccc23)NC(=O)[C@H](CO)NC(=O)[C@@H](NC(C)=O)CSCc2cc3cc(c2)CSC[C@H](NC(=O)[C@H](CCCNC(=N)N)NC1=O)C(=O)N[C@@H](CC(C)C)C(=O)N[C@@H](Cc1c[nH]cn1)C(=O)N[C@@H](CCC(N)=O)C(=O)N[C@@H](CC(=O)O)C(=O)N[C@@H](CC(C)C)C(=O)N[C@H](C(N)=O)CSC3 [Ac-(06-34-18) Aba4] (Ac-CSWP[Abu]RCLHQDLC-NH2; linker 1-7-13 via TBMB) |  |  | Observable in rat plasma, for days (Table 14): 2 days |
| CC(=O)N[C@H]1CSCc2cc3cc(c2)CSC[C@H](NC(=O)[C@H](CCCNC(=N)N)NC(=O)[C@H](C)NC(=O)C(C)(C)NC(=O)[C@H](Cc2c[nH]c4ccccc24)NC(=O)[C@H](CO)NC1=O)C(=O)N[C@@H](CC(C)C)C(=O)N[C@@H](Cc1c[nH]cn1)C(=O)N[C@@H](CCC(N)=O)C(=O)N[C@@H](CC(=O)O)C(=O)N[C@@H](CC(C)C)C(=O)N[C@H](C(N)=O)CSC3 [Ac-(06-34-18) Aib3] (Ac-CSW[Aib]ARCLHQDLC-NH2; linker 1-7-13 via TBMB) |  | 2 |  |
| CC(=O)N[C@H]1CSCc2cc3cc(c2)CSC[C@H](NC(=O)[C@H](CCCNC(=N)N)NC(=O)C(C)(C)NC(=O)[C@@H]2CCCN2C(=O)[C@H](Cc2c[nH]c4ccccc24)NC(=O)[C@H](CO)NC1=O)C(=O)N[C@@H](CC(C)C)C(=O)N[C@@H](Cc1c[nH]cn1)C(=O)N[C@@H](CCC(N)=O)C(=O)N[C@@H](CC(=O)O)C(=O)N[C@@H](CC(C)C)C(=O)N[C@H](C(N)=O)CSC3 [Ac-(06-34-18) Aib4] (Ac-CSWP[Aib]RCLHQDLC-NH2; linker 1-7-13 via TBMB) |  |  | Observable in rat plasma, for days (Table 14): 7 days |
| CC(=O)N[C@H]1CSCc2cc3cc(c2)CSC[C@H](NC(=O)[C@H](CCCNC(=N)N)NC(=O)[C@H](C)NC(=O)[C@@H]2CCCN2C(=O)[C@H](CC2CCCCC2)NC(=O)[C@H](CO)NC1=O)C(=O)N[C@@H](CC(C)C)C(=O)N[C@@H](Cc1c[nH]cn1)C(=O)N[C@@H](CCC(N)=O)C(=O)N[C@@H](CC(=O)O)C(=O)N[C@@H](CC(C)C)C(=O)N[C@H](C(N)=O)CSC3 [Ac-(06-34-18) Cha2] (Ac-CS[Cha]PARCLHQDLC-NH2; linker 1-7-13 via TBMB) | 2 |  |  |
| CC(=O)N[C@H]1CSCc2cc3cc(c2)CSC(C)(C)[C@H](NC(=O)[C@H](CCCNC(=N)N)NC(=O)[C@H](C)NC(=O)[C@@H]2CCCN2C(=O)[C@H](Cc2c[nH]c4ccccc24)NC(=O)[C@H](CO)NC1=O)C(=O)N[C@@H](CC(C)C)C(=O)N[C@@H](Cc1c[nH]cn1)C(=O)N[C@@H](CCC(N)=O)C(=O)N[C@@H](CC(=O)O)C(=O)N[C@@H](CC(C)C)C(=O)N[C@H](C(N)=O)CSC3 [Ac-(06-34-18) Cys2ToPen2] (Ac-CSWPAR[Pen]LHQDLC-NH2; linker 1-7-13 via TBMB) |  |  | Observable in rat plasma, for days (Table 14): 5 days |
| CC(=O)N[C@H]1CSCc2cc3cc(c2)CSC[C@H](NC(=O)[C@H](CCCNC(=N)N)NC(=O)[C@H](C)NC(=O)[C@@H]2C[C@@H](O)CN2C(=O)[C@H](Cc2c[nH]c4ccccc24)NC(=O)[C@H](CO)NC1=O)C(=O)N[C@@H](CC(C)C)C(=O)N[C@@H](Cc1c[nH]cn1)C(=O)N[C@@H](CCC(N)=O)C(=O)N[C@@H](CC(=O)O)C(=O)N[C@@H](CC(C)C)C(=O)N[C@H](C(N)=O)CSC3 [Ac-(06-34-18) HyP3] (Ac-CSW[Hyp]ARCLHQDLC-NH2; linker 1-7-13 via TBMB) |  | 2 |  |
| CC(=O)N[C@H]1CSCc2cc3cc(c2)CSC[C@H](NC(=O)[C@H](CCCNC(=N)N)NC(=O)[C@H](C)NC(=O)[C@@H]2Cc4ccccc4N2C(=O)[C@H](Cc2c[nH]c4ccccc24)NC(=O)[C@H](CO)NC1=O)C(=O)N[C@@H](CC(C)C)C(=O)N[C@@H](Cc1c[nH]cn1)C(=O)N[C@@H](CCC(N)=O)C(=O)N[C@@H](CC(=O)O)C(=O)N[C@@H](CC(C)C)C(=O)N[C@H](C(N)=O)CSC3 [Ac-(06-34-18) Ind3] (Ac-CSW[X2]ARCLHQDLC-NH2; linker 1-7-13 via TBMB) |  | 2 |  |
| CC(=O)N[C@H]1CSCc2cc3cc(c2)CSC[C@H](NC(=O)[C@H](CCCNC(=N)N)NC(=O)[C@H](C)NC(=O)[C@@H]2CCCN2C(=O)[C@@H]2Cc4c([nH]c5ccccc45)CN2C(=O)[C@H](CO)NC1=O)C(=O)N[C@@H](CC(C)C)C(=O)N[C@@H](Cc1c[nH]cn1)C(=O)N[C@@H](CCC(N)=O)C(=O)N[C@@H](CC(=O)O)C(=O)N[C@@H](CC(C)C)C(=O)N[C@H](C(N)=O)CSC3 [Ac-(06-34-18) NorHar2] (Ac-CS[Tpi]PARCLHQDLC-NH2; linker 1-7-13 via TBMB) | 2 |  |  |
